# Data as given in US20220023269A1, “Methods Of Treating Diabetes In Severe Insulin-Resistant Diabetic Subjects” (Balticgruppen Bio AB, priority 2018, published 2022).
# What was measured:
# [1] = tested on: CBA mice on HFD; assay: In vivo glucose uptake ([18F]-FDG PET); settings: 2 mg/g in HFD, 2 w, vs HFD
# Procedure: Mice were allowed to be awake and freely moving around in their cage after injection. After 180 minutes, mice were sacrificed under deep isoflurane anaesthesia and blood was removed by retrograde perfusion of PBS via the aorta. When the liver was pale, tissues were collected and scanned for a 10 minutes static uptake (nanoScan PET/CT, Mediso, Hungary). The tissues were then scanned ex vivo scanning to assess uptake in the isolated tissues. Images were reconstructed to a 0.4×0.4 mm resolution with a 3D iterative reconstruction with 4 iterations and 4 subsets (Mediso Tera-Tomo 3D), covering 98 mm axial distance, employing spike filter, delayed-window random correction, scatter and CT-based attenuation corrections. Volumes of interest were manually delineated over each tissue using imlook4d (www.dicom-port.com). Tracer uptake was quantified as standardised uptake values (SUV), using the formula: SUV=C/(l/m); with C being the measured tissue activity concentration (Bq/mL), l the injected dose (Bq), and m the body weight (g). C and l are decay corrected to the same time.
# [2] = tested on: CBA mice on HFD (DIO mice); assay: CBA mice on test material-HFD (0.4, 0.8, 2 mg/g) for 7 w; format: in vivo
# Procedure: 12 weeks old CBA mice were randomised into a HFD and three test material-HFD groups (0.4 mg/g, 0.8 mg/g, and 2 mg/g) for 7 weeks. 16-17 weeks old CBA mice on regular diet was used as controls where indicated.
# Animals were housed at 12:12 hour light/dark cycle in a temperature/humidity controlled (22° C./50% humidity) room and ad libitum feeding with either standard chow (Special Diet Service #801730), high fat diet (HFD) (Research diets, Inc. #D12492) or HFD (Research diets, Inc. #D12492) custom formulated with test material at 2 mg/g test material, 0.8 mg/g test material and 0.4 mg/g test material, respectively.
# All cell lines were lysed in 0.1 M Tris-HCl, pH 6.8, 2% SDS, 10 mM sodium fluoride (SIGMA #S7920), 10 mM β-glycerophosphate (SIGMA #G6376), and 1 mM sodium vanadate (SIGMA #72060) and supernatant collected after 1 minute at 14,000 rpm. Islets (human and mouse) were lysed in 0.1 M Tris-HCl, pH 6.8, 2% SDS, protease inhibitor (Roche #04 693 124 001) and phosphatase inhibitor (Roche #04 906 837 001). Right calf muscle, heart, iWAT, and interscapular BAT was crushed in a pestle using liquid nitrogen and homogenised in ice cold RIPA buffer (150 mM sodium chloride (SIGMA #S7653), 1.0% NP40 (USB), 0.5% sodium deoxycholate (SIGMA #D6750), 0.1% SDS, 50 mM Tris pH 8.0, 20 mM sodium pyrophosphate (SIGMA #71515), 10 mM sodium fluoride, 10 mM β-glycerolphosphate, 1 mM sodium vanadate and protease inhibitor cocktail (Roche #04693124001), 1 tablet/10 ml lysis buffer). The supernatant was collected after 2 min at 14,000 rpm. This procedure was repeated until all fat was eliminated and the supernatant was clear, at 4° C. Samples were analysed on 4-15% polyacrylamide gels. Values were normalised toward AMPKα, β-Actin, GAPDH or the respective non-phosphorylated counterpart. […]
# [3] = tested on: INS-1E cells; assay: Autophagic flux assay; format: cell-based; settings: 5 μM, 24 h, ± 100 nM Bafilomycin A1
# Procedure: INS-1E cells were incubated for 24 h with or without 5 μM test material in the presence or absence of 100 nM Bafilomycin A1 (InvivoGen #tlrl-baf1) during the last 60 min of incubation. Levels of LC3II were determined by Western blot analysis and quantified.
# [4] = tested on: DIO mice; assay: Prevention of dysglycemia and insulin resistance in DIO B6 mice (oral gavage, 8 w); format: in vivo; settings: 100 mg/kg/day each
# Procedure: MATSUDA index was calculated via: […] […] All cell lines were lysed in 0.1 M Tris-HCl, pH 6.8, 2% SDS, 10 mM sodium fluoride (SIGMA #S7920), 10 mM β-glycerophosphate (SIGMA #G6376), and 1 mM sodium vanadate (SIGMA #72060) and supernatant collected after 1 minute at 14,000 rpm. Islets (human and mouse) were lysed in 0.1 M Tris-HCl, pH 6.8, 2% SDS, protease inhibitor (Roche #04 693 124 001) and phosphatase inhibitor (Roche #04 906 837 001). […] The supernatant was collected after 2 min at 14,000 rpm. This procedure was repeated until all fat was eliminated and the supernatant was clear, at 4° C. Samples were analysed on 4-15% polyacrylamide gels. Values were normalised toward AMPKα, β-Actin, GAPDH or the respective non-phosphorylated counterpart. For RNA purification calf muscle, iWAT, interscapular BAT, and left lateral liver lobe was crushed in a pestle using liquid nitrogen before turning to respective RNA kit. RNA from liver was prepared using Total RNA isolation Nucleospin II Kit (Macherey-Nagel #740955.50). RNA from adipose tissue was prepared using RNeasy Lipid Tissue Mini kit (Qiagen #74804). RNA from calf muscle tissue was prepared using RNeasy Fibrous Tissue Mini kit (Qiagen #74704). First strand cDNA synthesis was done using SuperScript III (First-Strand Synthesis SuperMix for qRT-PCR, Invitrogen #11752-250) according to the manufacturer's instructions. Total RNA was prepared from isolated islets using RNeasy Micro Kit (Qiagen #74004) and first strand cDNA synthesis was done using Superscript III (Invitrogen #18080-051) according to the manufacturer's instructions. Quantification of mRNA expression levels was performed essentially as previously described (Reference 3).
# [5] = 0.4, 0.8 and 2 mg/g in HFD, 6 w
smiles,measurement,setting,value
"O=C(Nc1nc(=O)n(Cc2ccc(Cl)cc2)s1)c1ccc(Cl)cc1 [test material, 4-chloro-N-[2-[(4-chlorophenyl)methyl]-3-oxo-1,2,4-thiadiazol-5-yl]benzamide]",[18F]-FDG uptake in calf and thigh muscle,[1],significant increase
same,[18F]-FDG uptake in heart,[1],significant increase
same,expression of Cd36 and Cpt1b in BAT,[2]; 2 mg/g in HFD,significantly increased the expression of Cd36
same,"expression of Fas, Scd1 and Acc1 in BAT",[2]; 2 mg/g in HFD,potently reduced the expression
same,weights of BAT pads,"[2]; 2 mg/g in HFD, vs HFD",reduced
same,weights of iWAT and eWAT fat pads,"[2]; 2 mg/g in HFD, vs HFD",markedly lower weights
same,dysglycemia (fasted blood glucose),[2]; [5],potently prevented
same,hyperinsulinemia (fasted insulin),[2]; [5],potently prevented
same,insulin resistance (HOMA-IR),[2]; [5],potently prevented
same,pAMPK in calf muscle,"[2]; 0.4, 0.8 and 2 mg/g in HFD, 7 w",dose-dependently increased pAMPK
same,heart glycogen content,"[2]; 0.8 or 2 mg/g in HFD, 7 w",reduced in a dose-dependent manner
same,heart weight/tibia length,"[2]; 0.8 or 2 mg/g in HFD, 7 w",did not cause an increase in heart weight/tibia length
same,pAMPK levels in the heart,"[2]; 0.8 or 2 mg/g in HFD, 7 w",significantly increased pAMPK levels in the heart
same,Cpt1b mRNA levels in liver,[2]; DIO mice,dose-dependently increased Cpt1b
same,hepatic steatosis,[2]; DIO mice,prevented and reduced hepatic steatosis
same,"Acc2, Fas and Scd1 mRNA levels in liver","[2]; DIO mice, dose-dependent","decreased Acc2, Fas, and Scd1 mRNA levels"
same,UCP1 expression in BAT and iWAT,"[2]; slightly, dose-dependent",reduced UCP1 expression
same,Atgl mRNA levels in iWAT,[2]; test material-HFD 7 w,increased both p-S406 ATGL levels and Atgl mRNA levels
same,p-S406 ATGL levels in iWAT,[2]; test material-HFD 7 w,increased both p-S406 ATGL levels and Atgl mRNA levels
same,autophagic flux (LC3II),[3],enhanced autophagic flux
same,HFD-provoked increase in fasted glucose,"[4]; oral gavage, 6 w",averted the HFD-provoked increase
same,HFD-provoked increase in fasted plasma insulin,"[4]; oral gavage, 6 w",averted the HFD-provoked increase
same,insulin resistance (HOMA-IR),"[4]; oral gavage, vs vehicle",did not develop insulin resistance
same,Glut1 mRNA levels in calf muscle,[4]; 8 w,increased Glut1 mRNA levels
same,Txnip mRNA levels in calf muscle,[4]; 8 w,reduced Txnip mRNA levels
same,pAMPK in calf muscle,[4]; 8 w,significantly increased pAMPK
